pIC50: −log10 of the molar value.
Assays:
SK-MEL-28 = test: NCI cancer cell line panel screening (SRB), melanoma cell line SK-MEL-28; assay type: cell-based, human; conditions: Homo sapiens, read-out: IC50 against melanoma cell line in vitro
Experimental: (§1) According to the standard protocol (http://dtp.nci.nih.gov/dtpstandard/dwindex/index.isp) of the US National Cancer Institute (NCI) (www.dtp.nci.nih.gov), screening of a cancer cell line panel was performed. […] For a general screening experiment, cells were inoculated in 96-well microtiter plates in 100 μl at a plating density ranging from 5000 cells/well to 40,000 cells/well depending on the doubling time of individual cell lines. After cell inoculation, the microtiter plates were incubated at 37° C., 5% CO2, 95% air, and 100% relative humidity for 24 hours prior to addition of test compounds. 24 hours later, two plates of each cell line were fixed in situ with trichloroacetic acid (TCA) to measure the cell population for each cell line at the time of test compound addition (Tz). Test compounds were solubilized in dimethyl sulfoxide at 400-fold the intended final maximum test concentration, and stored frozen prior to use. At the time of compound addition, an aliquot of frozen concentrate was thawed and diluted to twice the intended final maximum test concentration with a complete medium containing 50 μg/ml of gentamicin. Additional four concentration of 10-fold or ½ log serial dilutions were made to provide a total of five compound concentrations plus control. Aliquots of 100 μl of these different compound dilutions were added to appropriate microtiter wells already containing 100 μl of medium, resulting in the required final compound concentrations.
(§2) Following compound addition, the plates were incubated for additional 48 hours at 37° C., 5% CO2, 95% air, and 100% relative humidity. For adherent cells, the assay was terminated by the addition of cold TCA. Cells were fixed in situ by the gentle addition of 50 μl of cold 50% (w/v) TCA (final concentration, 10% TAC) and incubated at 4° C. for 60 minutes. The supernatant was discarded, and the plates were washed five times with tap water and air-dried. A sulforhodamine B (SRB) solution (100 μl) at 0.4% (w/v) in 1% acetic acid was added to each well, and plates were incubated at room temperature for 10 minutes. After staining, unbound dye was removed by washing five times with 1% acetic acid and the plates were air-dried. […] For suspension cells, the methodology was the same except that the assay was terminated by fixing settled cells at the bottom of the wells by gently adding 50 μl of 80% TCA (final concentration, 16% TCA). Using the seven absorbance measurements [time zero (Tz), control growth (C), and test growth rate in the presence of compound at the five concentration levels (Ti)], the growth percentage was calculated at each of the compound concentration levels. Growth inhibition percentage was calculated as follows: [(Ti−Tz)/(C−Tz)]×100 for concentrations for which Ti>/=Tz [(Ti−Tz)/Tz]×100 for concentrations for which Ti<Tz.

M14 = test: NCI cancer cell line panel screening (SRB), melanoma cell line M14; assay type: cell-based; conditions: Homo sapiens, read-out: IC50 against melanoma cell line in vitro
Experimental: (§3) According to the standard protocol (http://dtp.nci.nih.gov/dtpstandard/dwindex/index.isp) of the US National Cancer Institute (NCI) (www.dtp.nci.nih.gov), screening of a cancer cell line panel was performed. Briefly, human cell lines were allowed to grow in an RPMI 1640 medium containing 5% FBS and 2 mM L-glutamine. For a general screening experiment, cells were inoculated in 96-well microtiter plates in 100 μl at a plating density ranging from 5000 cells/well to 40,000 cells/well depending on the doubling time of individual cell lines. After cell inoculation, the microtiter plates were incubated at 37° C., 5% CO2, 95% air, and 100% relative humidity for 24 hours prior to addition of test compounds. 24 hours later, two plates of each cell line were fixed in situ with trichloroacetic acid (TCA) to measure the cell population for each cell line at the time of test compound addition (Tz). Test compounds were solubilized in dimethyl sulfoxide at 400-fold the intended final maximum test concentration, and stored frozen prior to use. At the time of compound addition, an aliquot of frozen concentrate was thawed and diluted to twice the intended final maximum test concentration with a complete medium containing 50 μg/ml of gentamicin. Additional four concentration of 10-fold or ½ log serial dilutions were made to provide a total of five compound concentrations plus control. Aliquots of 100 μl of these different compound dilutions were added to appropriate microtiter wells already containing 100 μl of medium, resulting in the required final compound concentrations.
(§4) Following compound addition, the plates were incubated for additional 48 hours at 37° C., 5% CO2, 95% air, and 100% relative humidity. For adherent cells, the assay was terminated by the addition of cold TCA. Cells were fixed in situ by the gentle addition of 50 μl of cold 50% (w/v) TCA (final concentration, 10% TAC) and incubated at 4° C. for 60 minutes. The supernatant was discarded, and the plates were washed five times with tap water and air-dried. A sulforhodamine B (SRB) solution (100 μl) at 0.4% (w/v) in 1% acetic acid was added to each well, and plates were incubated at room temperature for 10 minutes. After staining, unbound dye was removed by washing five times with 1% acetic acid and the plates were air-dried. Bound stain was subsequently solubilized with 10 mM Trizma base, and the absorbance was read on an automated plate reader at a wavelength of 515 nm. For suspension cells, the methodology was the same except that the assay was terminated by fixing settled cells at the bottom of the wells by gently adding 50 μl of 80% TCA (final concentration, 16% TCA). Using the seven absorbance measurements [time zero (Tz), control growth (C), and test growth rate in the presence of compound at the five concentration levels (Ti)], the growth percentage was calculated at each of the compound concentration levels. Growth inhibition percentage was calculated as follows: [(Ti−Tz)/(C−Tz)]×100 for concentrations for which Ti>/=Tz [(Ti−Tz)/Tz]×100 for concentrations for which Ti<Tz.

LOX IMVI = test: NCI cancer cell line panel screening (SRB), melanoma cell line LOX IMVI; assay type: cell-based, human; conditions: Homo sapiens, read-out: IC50 against melanoma cell line in vitro
Experimental: as §1, §2

B-RAF = B-RAF (Homo sapiens (Human), UniProt P15056); test: Protein kinase enzymatic activity (Reaction Biology kinase hotspot, 33P-ATP); assay type: biochemical; conditions: read-out: Inhibitory effect against kinase activity, B-RAF (IC50)
Chain of B-RAF (P15056 whole entry): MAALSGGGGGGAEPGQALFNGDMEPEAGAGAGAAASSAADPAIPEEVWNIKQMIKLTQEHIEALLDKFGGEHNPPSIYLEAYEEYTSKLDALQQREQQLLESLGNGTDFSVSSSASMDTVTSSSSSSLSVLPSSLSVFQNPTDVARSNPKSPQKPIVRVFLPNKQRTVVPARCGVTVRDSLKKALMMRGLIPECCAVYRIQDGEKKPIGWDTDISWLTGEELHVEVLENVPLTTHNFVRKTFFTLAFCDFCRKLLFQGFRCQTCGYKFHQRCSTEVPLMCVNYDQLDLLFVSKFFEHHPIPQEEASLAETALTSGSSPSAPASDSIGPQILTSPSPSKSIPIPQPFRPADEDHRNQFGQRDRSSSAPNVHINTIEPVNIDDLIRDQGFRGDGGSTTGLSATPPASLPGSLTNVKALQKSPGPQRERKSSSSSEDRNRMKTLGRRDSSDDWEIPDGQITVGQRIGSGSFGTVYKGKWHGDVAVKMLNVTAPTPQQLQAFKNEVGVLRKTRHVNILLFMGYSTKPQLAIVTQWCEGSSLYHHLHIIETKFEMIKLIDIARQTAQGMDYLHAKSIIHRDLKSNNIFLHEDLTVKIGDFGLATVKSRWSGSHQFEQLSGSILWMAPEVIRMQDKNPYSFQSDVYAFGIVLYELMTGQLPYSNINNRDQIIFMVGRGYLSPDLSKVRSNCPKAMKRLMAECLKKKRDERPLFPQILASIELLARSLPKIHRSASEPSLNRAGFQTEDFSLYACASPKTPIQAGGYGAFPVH
Experimental: Reaction biology kinase hotspot service (http://www.reactionbiology.com) was used to measure IC50. In a final reaction volume of 25 μL, kinase (5 mU to 10 mU) was incubated with 25 mM Tris (pH 7.5), 0.02 mM EGTA, 0.66 mg/ml of myelin basic protein, 10 mM magnesium acetate, and [^33P-ATP] (specific activity of about 500 CPM/pmol, concentration as required). The reaction was initiated by addition of Mg-ATP mix. After incubation for 40 min at room temperature, the reaction was stopped by addition of 5 μl of a 3% phosphoric acid solution. 10 μL of the reaction was then spotted onto a P30 filtermat and washed three times for 5 minutes in 75 mM phosphoric acid and once in methanol prior to drying and scintillation counting.

MDA-MB-435 = test: NCI cancer cell line panel screening (SRB), melanoma cell line MDA-MB-435; assay type: cell-based; conditions: Homo sapiens, read-out: IC50 against melanoma cell line in vitro
Experimental: as §3, §4

A375 = test: NCI cancer cell line panel screening (SRB), melanoma cell line A375; assay type: cell-based; conditions: Homo sapiens, A-375, read-out: IC50 against melanoma cell line in vitro
Experimental: as §3, §4

SK-MEL-2 = test: NCI cancer cell line panel screening (SRB), melanoma cell line SK-MEL-2; assay type: cell-based, human; conditions: Homo sapiens, read-out: IC50 against melanoma cell line in vitro
Experimental: as §1, §2

CCN1CCN(CCNc2nccc(-c3c(-c4cccc(O)c4)nc4occn34)n2)S1(=O)=O [2II, 2-Ethyl-5-(2-((4-(6-(3-hydroxylphenyl)imidazo[2,1-b]oxazol-5-yl)pyrimidin-2-yl)amino)ethyl)-1,2,5-thiadiazolidine 1,1-dioxide]
pIC50 (SK-MEL-28): 6.89 | pIC50 (M14): 6.85 | pIC50 (LOX IMVI): 5.60 | pIC50 (B-RAF): > 10.40 | pIC50 (MDA-MB-435): 6.43 | pIC50 (A375): 6.72 | pIC50 (SK-MEL-2): 5.59

Source: US10570155B2, “Imidazooxazole derivative having antitumor effect, and pharmaceutical composition including same” (KOREA INSTITUTE OF SCIENCE AND TECHNOLOGY, priority 2016, dated 2020)
